Tests used:
Vasopressin V2 receptor [1] = target: T1, Vasopressin V2 receptor (Homo sapiens, UniProt P30518); assay: Antagonist activity at human vasopressin V2 receptor expressed in HEK293 cells assessed as inhibition of Arg-vasopressin-induced cAMP levels; type: functional, cell-based
Vasopressin V1a receptor [2] = target: T2, Vasopressin V1a receptor (Homo sapiens, UniProt P37288); assay: Displacement of [3H]Arg-vasopressin from human recombinant vasopressin V1a receptor expressed in HEK293 cells at 100 nM; type: cell-based
Target sequence in this assay (P37288 whole entry, looked up): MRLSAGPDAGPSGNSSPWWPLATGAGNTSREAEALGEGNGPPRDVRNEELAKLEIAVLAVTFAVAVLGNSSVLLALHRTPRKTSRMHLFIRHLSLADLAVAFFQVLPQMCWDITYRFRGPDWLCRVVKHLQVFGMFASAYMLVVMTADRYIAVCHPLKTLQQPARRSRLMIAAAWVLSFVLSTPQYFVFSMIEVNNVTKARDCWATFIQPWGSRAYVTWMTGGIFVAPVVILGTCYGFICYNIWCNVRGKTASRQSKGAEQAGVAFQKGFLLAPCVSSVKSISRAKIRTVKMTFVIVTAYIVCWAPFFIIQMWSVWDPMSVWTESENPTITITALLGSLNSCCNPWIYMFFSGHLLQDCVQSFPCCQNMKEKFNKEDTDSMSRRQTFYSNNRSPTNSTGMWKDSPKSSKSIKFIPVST

Vasopressin V2 receptor [3] = target: T1, Vasopressin V2 receptor; assay: Displacement of [3H]Arg-vasopressin from human recombinant vasopressin V2 receptor expressed in HEK293 cells at 100 nM; type: cell-based
Vasopressin V1a receptor [4] = target: T2, Vasopressin V1a receptor; assay: Antagonist activity at human vasopressin V1a receptor expressed in HEK293 cells assessed as inhibition of Arg-vasopressin-induced intracellular calcium level; type: functional, cell-based
Target sequence in this assay (P37288 whole entry): as the sequence (P37288 whole entry, looked up) above

Vasopressin V1a receptor [5] = target: T2, Vasopressin V1a receptor; assay: Displacement of [3H]Arg-vasopressin from human recombinant vasopressin V1a receptor expressed in HEK293 cells; type: cell-based
Target sequence in this assay (P37288 whole entry): as the sequence (P37288 whole entry, looked up) above

Vasopressin V2 receptor [6] = target: T1, Vasopressin V2 receptor; assay: Displacement of [3H]Arg-vasopressin from human recombinant vasopressin V2 receptor expressed in HEK293 cells; type: cell-based
[7] = Half life in cynomolgus monkey plasma; type: ADME, organism-based, Macaca fascicularis
[8] = Oral bioavailability in dog; type: ADME, organism-based, Canis lupus familiaris; settings: in vivo
[9] = Oral bioavailability in rat; type: ADME, organism-based; settings: in vivo
Vasopressin V1a receptor [10] = target: Vasopressin V1a receptor (Rattus norvegicus, UniProt P30560); assay: Antagonist activity at rat vasopressin V1a receptor expressed in HEK293 cells assessed as inhibition of Arg-vasopressin-induced intracellular calcium level; type: functional, cell-based
Vasopressin V1a receptor (Rattus norvegicus, UniProt P30560), sequence (P30560 whole entry): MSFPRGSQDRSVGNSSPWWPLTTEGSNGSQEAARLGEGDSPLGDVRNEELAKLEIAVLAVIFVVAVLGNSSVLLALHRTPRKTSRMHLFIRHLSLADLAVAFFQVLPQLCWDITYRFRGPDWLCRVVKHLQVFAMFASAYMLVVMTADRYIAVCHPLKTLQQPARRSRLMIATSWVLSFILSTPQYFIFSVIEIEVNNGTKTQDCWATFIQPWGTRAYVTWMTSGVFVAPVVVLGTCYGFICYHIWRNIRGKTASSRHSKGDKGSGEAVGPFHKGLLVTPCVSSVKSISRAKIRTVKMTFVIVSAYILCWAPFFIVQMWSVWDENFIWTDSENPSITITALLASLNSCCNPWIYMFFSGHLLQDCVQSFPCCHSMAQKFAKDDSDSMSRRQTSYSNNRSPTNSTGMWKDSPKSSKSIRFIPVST

Rattus norvegicus [11] = assay: Aquaretic effect in hydrated conscious rat assessed as increase in urine volume at 1 mg/kg, po relative to control; type: functional
[12] = Aqueous solubility at pH 7.4; type: physicochemical
Canis familiaris [13] = assay: Aquaretic effect in Beagle dog assessed as increase in urine volume at 30 mg/kg, po relative to control; type: functional, Canis lupus familiaris
Rattus norvegicus [14] = assay: Reversal of Arg-vasopressin-induced hypertension in iv dosed Long-Evans rat assessed as reduction of blood pressure; type: functional
Rattus norvegicus [15] = assay: Aquaretic effect in hydrated conscious rat assessed as increase in urine volume at 3 mg/kg, po relative to control; type: functional
Canis familiaris [16] = assay: Aquaretic effect in Beagle dog assessed as reduction of urine osmolality at 30 mg/kg, po relative to control; type: functional, Canis lupus familiaris; set-up: scale not given: the % may be the effect or the level left
[17] = Half life in rat plasma; type: ADME, organism-based
Rattus norvegicus [18] = assay: Aquaretic effect in hydrated conscious rat assessed as increase in urine volume at 10 mg/kg, po relative to control; type: functional
Rattus norvegicus [19] = assay: Aquaretic effect in hydrated conscious rat assessed as reduction of urine osmolality at 1 mg/kg, po relative to control; type: functional; set-up: scale not given: the % may be the effect or the level left
Vasopressin V2 receptor [20] = target: Vasopressin V2 receptor (Rattus norvegicus, UniProt Q00788); assay: Antagonist activity at rat vasopressin V2 receptor expressed in HEK293 cells assessed as inhibition of Arg-vasopressin-induced cAMP levels; type: functional, cell-based
Vasopressin V2 receptor (Rattus norvegicus, UniProt Q00788), sequence (Q00788 whole entry): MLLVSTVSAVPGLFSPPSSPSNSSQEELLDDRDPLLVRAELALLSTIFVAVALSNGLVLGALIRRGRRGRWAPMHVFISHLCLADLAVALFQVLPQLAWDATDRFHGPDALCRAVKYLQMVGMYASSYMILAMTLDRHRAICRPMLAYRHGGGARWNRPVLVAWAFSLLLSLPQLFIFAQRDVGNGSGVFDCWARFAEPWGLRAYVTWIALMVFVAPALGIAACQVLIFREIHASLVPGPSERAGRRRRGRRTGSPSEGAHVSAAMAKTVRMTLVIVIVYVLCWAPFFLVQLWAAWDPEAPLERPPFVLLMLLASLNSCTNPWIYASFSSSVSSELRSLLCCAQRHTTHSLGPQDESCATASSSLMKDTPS

[21] = Half life in dog plasma; type: ADME, organism-based, Canis lupus familiaris
Rattus norvegicus [22] = assay: Aquaretic effect in hydrated conscious rat assessed as reduction of urine osmolality at 30 mg/kg, po relative to control; type: functional; set-up: scale not given: the % may be the effect or the level left
[23] = Oral bioavailability in cynomolgus monkey; type: ADME, organism-based, Macaca fascicularis; settings: in vivo
Rattus norvegicus [24] = assay: Aquaretic effect in hydrated conscious rat assessed as increase in urine volume at 30 mg/kg, po relative to control; type: functional
Rattus norvegicus [25] = assay: Aquaretic effect in hydrated conscious rat assessed as reduction of urine osmolality at 3 mg/kg, po relative to control; type: functional; set-up: scale not given: the % may be the effect or the level left
Rattus norvegicus [26] = assay: Aquaretic effect in hydrated conscious rat assessed as reduction of urine osmolality at 10 mg/kg, po relative to control; type: functional; set-up: scale not given: the % may be the effect or the level left

T1 sequence (P30518 whole entry): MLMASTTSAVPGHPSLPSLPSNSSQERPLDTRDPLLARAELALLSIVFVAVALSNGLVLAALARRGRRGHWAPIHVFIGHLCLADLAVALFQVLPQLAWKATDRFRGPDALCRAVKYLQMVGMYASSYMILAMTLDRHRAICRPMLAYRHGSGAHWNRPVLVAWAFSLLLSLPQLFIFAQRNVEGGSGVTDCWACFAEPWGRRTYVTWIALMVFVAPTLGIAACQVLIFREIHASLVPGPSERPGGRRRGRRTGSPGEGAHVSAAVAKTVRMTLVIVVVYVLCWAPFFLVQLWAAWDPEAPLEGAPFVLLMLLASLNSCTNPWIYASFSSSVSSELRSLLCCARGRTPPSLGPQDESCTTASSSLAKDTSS

Structure (SMILES)	IC50 (Vasopressin V2 receptor [1]) [nM]	Activity (Vasopressin V2 receptor [3]) [%]	IC50 (Vasopressin V1a receptor [4]) [nM]	IC50 (Vasopressin V1a receptor [5]) [nM]	IC50 (Vasopressin V2 receptor [6]) [nM]	also measured
CNCC1=CC2(CC1)CCN(C(=O)c1ccc(NC(=O)c3cc(F)ccc3C)cc1Cl)c1ccccc1C2 (stereo not given)		17				Activity (Vasopressin V1a receptor [2]): 0%
COc1cc(NC(=O)c2cc(F)ccc2C)ccc1C(=O)N1CCC2(C=C(C(=O)O)CC2)Cc2ccccc21 (stereo not given)	140		11600			Activity (Vasopressin V1a receptor [2]): 15%
O=C(O)C1=CC2(CC1)CCN(C(=O)c1ccc(NC(=O)c3ccccc3F)cc1)c1ccccc1C2 (stereo not given)		15		100		
COc1cc(C(=O)N2CCC3(C=C(C(=O)O)CC3)Cc3ccccc32)ccc1NC(=O)c1cc(F)ccc1Cl (stereo not given)	120		89	19	92	
O=C(O)C1=CC2(CC1)CCN(C(=O)c1ccc(NC(=O)c3cc(F)ccc3Cl)cc1)c1ccccc1C2 (stereo not given)	410		780	32	76	
COC(=O)C1=CC2(CC1)CCN(C(=O)c1ccc(NC(=O)c3ccccc3F)cc1)c1ccccc1C2 (stereo not given)	> 10000	23	130			
COc1cc(C(=O)N2CC[C@]3(C=C(C4=NCCN4)CC3)Cc3ccccc32)ccc1NC(=O)c1cc(F)ccc1Cl	1050					
CN(C)CCNC(=O)C1=C[C@@]2(CC1)CCN(C(=O)c1ccc(NC(=O)c3ccccc3-c3ccccc3)cc1)c1ccccc1C2	36		45	2	8	

Further lines, with some results ahead:

IC50 (Vasopressin V2 receptor [1]) [nM]	Activity (Vasopressin V2 receptor [3]) [%]	IC50 (Vasopressin V1a receptor [4]) [nM]	IC50 (Vasopressin V1a receptor [5]) [nM]	IC50 (Vasopressin V2 receptor [6]) [nM]	Structure (SMILES)	also measured
360					O=C(O)C1=CC2(CC1)CCN(C(=O)c1ccc(NC(=O)c3ccccc3-c3ccccc3)cc1)c1ccccc1C2 (stereo not given)	
		> 5000			Cc1ccc(F)cc1C(=O)Nc1ccc(C(=O)N2Cc3cccn3Cc3ccccc32)c(Cl)c1 [LIXIVAPTAN]	
	66		100		Cc1ccc(F)cc1C(=O)Nc1ccc(C(=O)N2CCC3(C=C(CO)CC3)Cc3ccccc32)c(Cl)c1 (stereo not given)	
	67				Cc1ccc(F)cc1C(=O)Nc1ccc(C(=O)N2CCC3(C=C(C(=O)O)CC3)Cc3ccccc32)c(Cl)c1 (stereo not given)	Activity (Vasopressin V1a receptor [2]): 10%
				34	COc1cc(C(=O)N2CC[C@]3(C=C(C(=O)O)CC3)Cc3ccccc32)ccc1NC(=O)c1cc(F)ccc1Cl	half-life [7]: 654 min; bioavailability [8]: 45%; bioavailability [9]: 68%; IC50 (Vasopressin V1a receptor [10]): 640 nM; Activity (Rattus norvegicus [11]): 130%; solubility [12]: > 1000 µg/mL; Activity (Canis familiaris [13]): 1130%; ED50 (Rattus norvegicus [14]): 0.644 mg/kg; Activity (Rattus norvegicus [15]): 165%; Activity (Canis familiaris [16]): -78%; half-life [17]: 522 min; Activity (Rattus norvegicus [18]): 310%; Activity (Rattus norvegicus [19]): 87%; IC50 (Vasopressin V2 receptor [20]): 30 nM; half-life [21]: 306 min; Activity (Rattus norvegicus [22]): 83%; bioavailability [23]: 23%; Activity (Rattus norvegicus [24]): 690%; Activity (Rattus norvegicus [25]): 48%; Activity (Rattus norvegicus [26]): 52%
> 10000		190	40	> 200	COC(=O)C1=CC2(CC1)CCN(C(=O)c1ccc(NC(=O)c3cc(F)ccc3Cl)cc1)c1ccccc1C2 (stereo not given)	
1800		630	18	44	CNCC1=CC2(CC1)CCN(C(=O)c1ccc(NC(=O)c3ccccc3-c3ccccc3)cc1)c1ccccc1C2 (stereo not given)	
190		9			O=C(Nc1ccc(C(=O)N2CCC3(C=C(CO)CC3)Cc3ccccc32)cc1)c1ccccc1-c1ccccc1 (stereo not given)	

From ChEMBL document CHEMBL1140572, “Next-generation spirobenzazepines: identification of RWJ-676070 as a balanced vasopressin V1a/V2 receptor antagonist for human clinical studies” (Bioorg Med Chem Lett, 2007)
